Laboratory results as given in US11077092B2, “Methods of treating diabetes by administering a glucagon receptor antagonist in combination with a cholesterol absorption inhibitor” (Merck Sharp & Dohme Corp., priority 2012, dated 2021).

Key:
hGCGR mice [1] = assay: Sub-chronic treatment of hGCGR mice with GRA (Example 1): plasma total cholesterol, phytosterols, lathosterol, cholesterol synthesis; format: in vivo; details: 30 mpk QD for 5 days, vs vehicle
Experimental: Male hGCGR mice (Transgenic Research, 8:295-302, 1999) at ˜12 wks of age maintained on chow diet were treated with vehicle and GRA Compounds A, B, and C at 30 mpk QD for 5 days (n=8). On Day 1, mice were administered the compounds followed by glucagon-induced glucose tolerance test. On Day 5, mice were fasted at 7:30 am. After dosing at ˜9:00 am, the blood glucose was measured at 2-h post dose with a glucometer; see FIG. 1. At 6-h post dose, the tail blood was collected for PK measurement. Mice were euthanized with CO2, and blood was collected by cardiac puncture. The liver was snap frozen in liquid nitrogen with a freezing clamp and saved in −80° C. Plasma was isolated by centrifuging the blood at 8000 rpm for 5 min. The plasma level of total cholesterol was measured by biochemical assay (Wako Chemicals Inc.). The plasma level of lathosterol and phytosterol was measured by LC/MS. To determine cholesterol synthesis. D2O was administered i.p. at 20 ml/kg on 24 h prior to takedown of the mice. The level of D2 in plasma water and plasma cholesterol was assayed by GC/MS for cholesterol synthesis. Asterisks denote statistical significance between treatment and vehicle groups.

hGCGR mice [2] = assay: Combination treatment of GRAs with ezetimibe in hGCGR mice (Example 9); format: in vivo; details: for plasma total cholesterol: GRA alone 30 mpk QD for 9 days
Source text: FIGS. 15A-B illustrate total plasma cholesterol (FIG. 15A) and cholesterol absorption (FIG. 15B) upon sub-chronic treatment of hGCGR mice with vehicle. GRA Compound A (30 mpk), ezetimibe (10 mpk), or Compound A (30 mpk)+ezetimibe (10 mpk) QD for 9 days.
FIGS. 16A-B illustrate total plasma cholesterol (FIG. 16A) and cholesterol absorption (FIG. 16B) upon sub-chronic treatment of hGCGR mice with vehicle, GRA Compound D (30 mpk), Compound E (30 mpk), Compound D (30 mpk)+ezetimibe (10 mpk), or Compound E (30 mpk)+ezetimibe (10 mpk) QD for 9 days.
A similar protocol was deployed in this part of work except ezetimibe was added to the combination treatment groups. Briefly, male hGCGR mice at ˜12 wks of age were treated with vehicle, ezetimibe@10 mpk, Compound A@30 mpk, Compound D@30 mpk, Compound E@30 mpk, Compound A@30 mpk+ezetimibe@10 mpk, Compound D@30 mpk+ezetimibe@10 mpk, Compound E@30 mpk+ezetimibe@10 mpk. Plasma total cholesterol, phytosterol, cholesterol absorption, and cholesterol synthesis were quantified using the same assays as described before.

hGCGR mice [3] = assay: hGCGR mice, 5 day treatment with GRA Compound A and positive control LXR agonist (Example 2): plasma total cholesterol and LDL-c; format: in vivo; details: comparing with vehicle
Source text: FIG. 6 illustrates plasma levels of total cholesterol and LDL-c in hGCGR mice following a 5 day treatment with GRA Compound A and positive control LXR agonist.
It is important to note that lipoprotein profiles of mouse and human are fundamentally different. In mice, the major lipoproteins are in HDL while in humans the main lipoproteins are in LDL-c. In preclinical studies, hGCGR mice were used as the model for in vivo study. Plasma level of total cholesterol was used as a more reliable parameter to indicate the effect of GRAS on cholesterol metabolism.

hGCGR mice [4] = assay: Dual tracer study for cholesterol absorption in hGCGR mice (Example 4); format: in vivo; details: 30 mpk QD for 9 days
Experimental: Male hGCGR mice at ˜12 wks of age maintained on chow or high cholesterol diet (n=8 group) were treated with vehicle and GRA Compound A@30 mpk QD for 9 days. Twenty four-hour feces before treatment and 3 days after treated were collected for fecal cholesterol characterization. On Day 4, mice were dosed with vehicle (0.5% MC, BID) or Compound A followed by administration with D6-cholesterol@15 mpk through p.o. and 13C-cholesterol@15 mpk through i.v. Blood was collected at 4, 24, 48, 72, and 96 h post injection by tail bleeding. For cholesterol synthesis, D2O was administered i.p. at 20 ml/kg on Day 7. On day 8, tail blood was collected for PK and mice were taken down for blood and liver collection. Plasma was isolated from blood by centrifuge at 8000 rpm for 5 min and submitted for GC/MS assay for cholesterol synthesis and absorption. Feces were sent to Taconic for fecal cholesterol assay. Asterisks denote statistical significance between treatment and vehicle groups. * p<0.05, **p<0.01, and ***p<0.001 by ANOVA.

type 2 diabetic patients = format: in vivo, human
Experimental: In phase 2b trial studies of Compound D, the average plasma levels of LDL-c in the placebo, Compound D@20, 40, 60, 80 mg, and metformin@2 g groups were 112.3, 117.7, 117.3, 110.0, 111.9, and 113.8 mg/dl at baseline, respectively. Plasma levels of LDL-c of the majority of the patients were within the normal range (≤130 mg/dl) according to the guideline of the American Heart Association and Mayo Clinic. After 12-week treatment, the average plasma levels of LDL-c were 105.4, 117.7, 123.2, 119.7, 126.6, and 111.1 mg/dl, respectively.
The following table illustrates the plasma levels of LDL-c in the patients in the phase 2b trial of Compound D. Type 2 diabetic patients with fasting glucose level of 140 to 240 mg/dl were recruited to the phase 2b trial of Compound D. After a 6-wk washout of any previous anti-hyperglycemic agents, patients were treated with placebo, Compound D QD@20, 40, 60, and 80 mg, and metformin BID@1 g for 12 wks. Values in bold are the percentage of patients on Day-1 and wk 12 less than or equal to the designated cutoff values at 130, 110, 100, and 70 mg/dl.
The baseline plasma level of LDL-c (Day -1) was plotted with the % change of LDL-c at week 12 from baseline.
In the 46 patients on Compound D@60 mg in the phase 2b trial, 14 patients were on statins during the 12-wk trial. […] LDL-c (despite the presence of the statin); see FIG. 17.

hGCGR mice [5] = assay: Sub-chronic study of Compound D in hGCGR mice: glucagon-induced glucose tolerance test and plasma phytosterols (Example 5); format: in vivo; details: 3 and 10 mpk, Day 1
Experimental: Male wild type and hGCGR mice on chow diet were treated with vehicle or GRA Compound D@3 and 10 mpk. On Day 1, mice were administered vehicle or Compound D followed by a glucagon-induced glucose tolerance test. On Day 5, mice were fasted at 7:30 am. After dosing at ˜9:00 am, blood glucose was measured at 2-h post dose with a glucometer. At 6-h post dose, tail blood was collected for a PK measurement. Mice were euthanized with CO2, and blood was collected by cardiac puncture. The liver was snap frozen in liquid nitrogen with a freezing clamp and saved in −80° C.
Plasma was isolated by centrifuging the blood at 8000 rpm for 5 min. Plasma level of total cholesterol was measured by an enzymatic colorimetric method (Wako Chemicals Inc.). Plasma levels of lathosterol and Phytosterol was measured by LC/MS.

[6] = ezetimibe 10 mpk combined with Compound A, D or E 30 mpk, QD for 9 days

## COc1ccc2cc(-c3cc(-c4cc(C(F)(F)F)ccc4F)nn3[C@@H](C)c3ccc(C(=O)NCCC(=O)O)cc3)ccc2c1 [Compound A]
hGCGR mice [1]
  plasma total cholesterol: induced
hGCGR mice [2]
  plasma total cholesterol: significantly increased or tended to increase
hGCGR mice [3]
  plasma level of LDL-c: significantly increased
  plasma level of total cholesterol: significantly increased
hGCGR mice [4]
  plasma total cholesterol: significantly increased

## Cc1cc(OC(CCC(F)(F)F)c2ccc(C(=O)NCCC(=O)O)cc2)cc(C)c1-c1ccc(C(C)(C)C)cc1 (stereo not shown) [Compound B, 3-{4-[1-(4′-tert-butyl-2,6-dimethyl-biphenyl-4-yloxy)-4,4,4-trifluoro-butyl]-benzoylamino}-propionic acid]
hGCGR mice [1]
  plasma total cholesterol: induced

## Cc1cc(OC(CCC(C)(C)C)c2ccc(C(=O)NCCC(=O)O)cc2)cc(C)c1-c1ccc(C(F)(F)F)cc1 (stereo not shown) [Compound C, 3-{4-[1-(2,6-Dimethyl-4′-trifluoromethyl-biphenyl-4-yloxy)-4,4-dimethyl-pentyl]-benzoylamino}-propionic acid]
hGCGR mice [1]
  plasma total cholesterol: induced

## COc1ccc2cc(-c3cc(-c4cc(Cl)cc(Cl)c4)nn3[C@@H](C)c3ccc(C(=O)NCCC(=O)O)cc3)ccc2c1 [Compound D, N-(4-{(1S)-1-[3-(3,5-dichlorophenyl)-5-(6-methoxy-2-naphthyl)-1H-pyrazol-1-yl]ethyl}benzoyl)-β-alanine]
Type 2 diabetic patients; 60 mg, 12-wk trial, in most patients
  blood glucose levels: substantial reduction
hGCGR mice [5]
  glucagon-induced glucose excursion: suppressed
hGCGR mice [2]
  plasma total cholesterol: significantly increased or tended to increase

## CCC[C@H](c1ccc(C(=O)NCCC(=O)O)cc1)[C@H](c1ccc(Cl)cc1)c1c[nH]c2c(F)cc(C)cc12 [Compound E, N-(4-{(1S)-1-[(R)-(4-chlorophenyl)(7-fluoro-5-methyl-1H-indol-3-yl)methyl]butyl}benzoyl)-β-alanine]
hGCGR mice [2]
  plasma total cholesterol: significantly increased or tended to increase

## O=S(=O)(c1ccccc1)N(CC(F)(F)F)c1ccc(C(O)(C(F)(F)F)C(F)(F)F)cc1 [Compound T, reference compound]
hGCGR mice [3]
  plasma level of LDL-c: significantly increased
  plasma level of total cholesterol: significantly increased

## CN(C)C(=N)N=C(N)N [Metformin, metformin, reference compound]
Type 2 diabetic patients; human, in vivo
  average plasma level of LDL-c: 113.8 mg/dL
  increase of LDL-c after 12-week treatment: 2.2%
  percentage of patients with plasma LDL-c less than or equal to 110 mg/dl: 54.2 percentage
  percentage of patients with plasma LDL-c less than or equal to 130 mg/dl: 70.8 percentage

## O=C1[C@H](CC[C@H](O)c2ccc(F)cc2)[C@@H](c2ccc(O)cc2)N1c1ccc(F)cc1 [ezetimibe, reference compound]
hGCGR mice [2]; [6]
  induction of cholesterol absorption caused by GRAs: prevented the induction
  induction of total cholesterol caused by GRAs: prevented the induction
